Reference: the kinase profiling compilation of Christmann-Franck et al. (2016)

What was measured:
Assay in all cases: SelectScreen, TR FRET
Conditions in all cases: compound 5.0 µM
[1] = molecular target: ABL1 (human) (UniProt P00519)
[2] = test system: ABL1 (human), P00519 [E255K]
[3] = molecular target: ADRBK1 (human) (UniProt P25098)
[4] = molecular target: ALK (human) (UniProt Q9UM73)
[5] = molecular target: AURKB (human) (UniProt Q96GD4)
[6] = molecular target: CDK1 CCNB1 (human) (UniProt P06493+P14635)
[7] = molecular target: CDK5 CDK5R1 p35 (human) (UniProt Q00535+Q15078)
[8] = molecular target: CSNK1D (human) (UniProt P48730)
[9] = molecular target: CSNK1G3 (human) (UniProt Q9Y6M4)
[10] = test system: EGFR (human), P00533 [L861Q]
[11] = molecular target: EPHA3 (human) (UniProt P29320)
[12] = molecular target: EPHA4 (human) (UniProt P54764)
[13] = molecular target: EPHA5 (human) (UniProt P54756)
[14] = molecular target: EPHB3 (human) (UniProt P54753)
[15] = molecular target: FER (human) (UniProt P16591)
[16] = molecular target: FES (human) (UniProt P07332)
[17] = molecular target: FRK (human) (UniProt P42685)
[18] = molecular target: FYN (human) (UniProt P06241)
[19] = molecular target: GRK6 (human) (UniProt P43250)
[20] = molecular target: GSK3A (human) (UniProt P49840)
[21] = molecular target: HCK (human) (UniProt P08631)
[22] = molecular target: IGF1R (human) (UniProt P08069)
[23] = molecular target: INSRR (human) (UniProt P14616)
[24] = molecular target: KIT (human) (UniProt P10721)
[25] = test system: KIT (human), P10721 [T670I]
[26] = molecular target: MAP2K2 (human) (UniProt P36507)
[27] = molecular target: MAP2K6 (human) (UniProt P52564)
[28] = molecular target: MAP4K2 (human) (UniProt Q12851)
[29] = molecular target: MAPK12 (human) (UniProt P53778)
[30] = molecular target: MAPKAPK3 (human) (UniProt Q16644)
[31] = molecular target: NEK1 (human) (UniProt Q96PY6)
[32] = molecular target: PDPK1 (human) (UniProt O15530)
[33] = molecular target: PKN1 (human) (UniProt Q16512)
[34] = molecular target: PRKCB2 (human) (UniProt P05771)
[35] = molecular target: PRKCH (human) (UniProt P24723)
[36] = molecular target: PRKG2 (human) (UniProt Q13237)
[37] = molecular target: PRKX (human) (UniProt P51817)
[38] = molecular target: ROCK1 (human) (UniProt Q13464)
[39] = molecular target: RPS6KA5 KD1 KD2 (human) (UniProt O75582)
[40] = molecular target: SGK1 (human) (UniProt O00141)
SGK1 (human), sequence (O00141 whole entry, looked up): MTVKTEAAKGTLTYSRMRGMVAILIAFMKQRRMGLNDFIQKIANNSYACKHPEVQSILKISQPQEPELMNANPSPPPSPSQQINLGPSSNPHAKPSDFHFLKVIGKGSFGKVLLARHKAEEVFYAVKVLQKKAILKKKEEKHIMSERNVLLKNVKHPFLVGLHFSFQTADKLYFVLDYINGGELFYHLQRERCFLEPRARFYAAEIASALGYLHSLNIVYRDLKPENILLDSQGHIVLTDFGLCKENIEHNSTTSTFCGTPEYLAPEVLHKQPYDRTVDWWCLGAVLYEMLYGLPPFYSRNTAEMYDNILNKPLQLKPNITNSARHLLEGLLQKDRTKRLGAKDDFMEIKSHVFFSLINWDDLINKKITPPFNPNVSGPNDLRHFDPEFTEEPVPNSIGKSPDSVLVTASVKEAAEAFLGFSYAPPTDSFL

MAPK12 (human), sequence (P53778 whole entry, looked up): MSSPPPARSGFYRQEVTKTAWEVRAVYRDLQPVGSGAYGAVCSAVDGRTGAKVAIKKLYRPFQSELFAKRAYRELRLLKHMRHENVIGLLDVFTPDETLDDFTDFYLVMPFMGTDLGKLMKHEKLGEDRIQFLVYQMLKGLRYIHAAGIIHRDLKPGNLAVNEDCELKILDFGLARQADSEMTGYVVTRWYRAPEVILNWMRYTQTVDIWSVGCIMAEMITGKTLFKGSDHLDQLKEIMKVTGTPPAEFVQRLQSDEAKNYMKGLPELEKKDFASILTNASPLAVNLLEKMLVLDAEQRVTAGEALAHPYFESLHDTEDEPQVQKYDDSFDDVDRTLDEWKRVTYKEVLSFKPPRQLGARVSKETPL
PRKCB2 (human), sequence (P05771 whole entry, looked up): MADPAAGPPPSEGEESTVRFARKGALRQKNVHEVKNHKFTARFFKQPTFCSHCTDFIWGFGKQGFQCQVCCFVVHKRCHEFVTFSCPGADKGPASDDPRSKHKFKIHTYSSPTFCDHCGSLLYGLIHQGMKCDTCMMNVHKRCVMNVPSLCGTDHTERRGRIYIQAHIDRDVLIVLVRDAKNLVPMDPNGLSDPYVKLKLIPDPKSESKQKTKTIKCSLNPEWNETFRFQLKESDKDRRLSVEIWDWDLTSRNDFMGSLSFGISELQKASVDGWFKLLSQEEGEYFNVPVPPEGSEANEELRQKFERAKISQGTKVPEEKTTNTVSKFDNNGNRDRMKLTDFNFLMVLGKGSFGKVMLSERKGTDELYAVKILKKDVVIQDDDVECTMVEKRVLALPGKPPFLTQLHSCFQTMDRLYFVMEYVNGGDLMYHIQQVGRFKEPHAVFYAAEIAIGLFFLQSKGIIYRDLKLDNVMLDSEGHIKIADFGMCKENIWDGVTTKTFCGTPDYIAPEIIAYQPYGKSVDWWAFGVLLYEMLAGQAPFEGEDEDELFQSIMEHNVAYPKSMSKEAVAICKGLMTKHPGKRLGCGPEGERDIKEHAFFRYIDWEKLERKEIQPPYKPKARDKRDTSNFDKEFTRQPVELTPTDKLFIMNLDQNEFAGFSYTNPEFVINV
PDPK1 (human), sequence (O15530 whole entry, looked up): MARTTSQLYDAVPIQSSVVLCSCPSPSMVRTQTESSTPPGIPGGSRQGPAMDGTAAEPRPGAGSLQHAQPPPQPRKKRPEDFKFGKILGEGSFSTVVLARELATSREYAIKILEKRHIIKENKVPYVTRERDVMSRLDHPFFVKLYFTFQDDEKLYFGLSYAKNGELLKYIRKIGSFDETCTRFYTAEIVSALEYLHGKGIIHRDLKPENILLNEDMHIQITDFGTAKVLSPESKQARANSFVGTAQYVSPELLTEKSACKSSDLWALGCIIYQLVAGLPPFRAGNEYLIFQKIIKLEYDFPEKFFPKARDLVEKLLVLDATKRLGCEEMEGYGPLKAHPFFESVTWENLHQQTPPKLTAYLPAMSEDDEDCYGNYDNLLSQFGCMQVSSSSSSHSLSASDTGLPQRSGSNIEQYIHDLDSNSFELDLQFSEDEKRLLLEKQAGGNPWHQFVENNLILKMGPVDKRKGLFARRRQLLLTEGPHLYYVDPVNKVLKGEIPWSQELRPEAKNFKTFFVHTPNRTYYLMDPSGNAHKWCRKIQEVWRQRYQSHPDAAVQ
ABL1 (human), sequence (P00519 whole entry, looked up): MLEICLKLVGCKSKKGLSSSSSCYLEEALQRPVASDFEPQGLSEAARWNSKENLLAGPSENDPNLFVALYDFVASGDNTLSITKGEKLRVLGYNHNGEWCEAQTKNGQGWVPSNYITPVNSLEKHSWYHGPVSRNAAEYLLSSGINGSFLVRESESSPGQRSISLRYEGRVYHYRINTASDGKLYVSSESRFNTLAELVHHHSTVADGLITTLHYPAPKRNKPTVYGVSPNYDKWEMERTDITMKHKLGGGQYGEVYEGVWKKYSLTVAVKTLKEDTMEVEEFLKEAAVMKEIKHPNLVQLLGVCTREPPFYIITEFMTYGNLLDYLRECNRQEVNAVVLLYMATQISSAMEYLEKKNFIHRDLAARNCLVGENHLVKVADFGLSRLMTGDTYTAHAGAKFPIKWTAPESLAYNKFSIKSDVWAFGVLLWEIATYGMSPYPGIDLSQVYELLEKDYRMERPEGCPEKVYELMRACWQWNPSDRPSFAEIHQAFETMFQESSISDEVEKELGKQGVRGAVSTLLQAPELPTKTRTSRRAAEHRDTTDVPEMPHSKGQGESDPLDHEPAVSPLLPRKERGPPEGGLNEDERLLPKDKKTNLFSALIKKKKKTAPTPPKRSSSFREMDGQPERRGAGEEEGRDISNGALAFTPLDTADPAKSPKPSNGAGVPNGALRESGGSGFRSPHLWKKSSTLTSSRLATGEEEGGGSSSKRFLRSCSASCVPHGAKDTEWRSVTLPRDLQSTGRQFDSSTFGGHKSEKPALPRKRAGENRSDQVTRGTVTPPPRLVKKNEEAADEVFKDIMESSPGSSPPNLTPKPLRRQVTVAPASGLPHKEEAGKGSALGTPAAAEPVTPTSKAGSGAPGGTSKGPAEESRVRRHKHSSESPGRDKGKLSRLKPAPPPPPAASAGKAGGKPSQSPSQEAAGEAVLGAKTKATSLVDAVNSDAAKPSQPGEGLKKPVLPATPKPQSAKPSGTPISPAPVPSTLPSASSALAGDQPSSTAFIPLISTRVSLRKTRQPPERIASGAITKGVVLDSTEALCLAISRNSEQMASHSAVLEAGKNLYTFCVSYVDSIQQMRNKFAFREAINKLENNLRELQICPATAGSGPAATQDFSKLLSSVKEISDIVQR
RPS6KA5 KD1 KD2 (human), sequence (O75582 whole entry, looked up): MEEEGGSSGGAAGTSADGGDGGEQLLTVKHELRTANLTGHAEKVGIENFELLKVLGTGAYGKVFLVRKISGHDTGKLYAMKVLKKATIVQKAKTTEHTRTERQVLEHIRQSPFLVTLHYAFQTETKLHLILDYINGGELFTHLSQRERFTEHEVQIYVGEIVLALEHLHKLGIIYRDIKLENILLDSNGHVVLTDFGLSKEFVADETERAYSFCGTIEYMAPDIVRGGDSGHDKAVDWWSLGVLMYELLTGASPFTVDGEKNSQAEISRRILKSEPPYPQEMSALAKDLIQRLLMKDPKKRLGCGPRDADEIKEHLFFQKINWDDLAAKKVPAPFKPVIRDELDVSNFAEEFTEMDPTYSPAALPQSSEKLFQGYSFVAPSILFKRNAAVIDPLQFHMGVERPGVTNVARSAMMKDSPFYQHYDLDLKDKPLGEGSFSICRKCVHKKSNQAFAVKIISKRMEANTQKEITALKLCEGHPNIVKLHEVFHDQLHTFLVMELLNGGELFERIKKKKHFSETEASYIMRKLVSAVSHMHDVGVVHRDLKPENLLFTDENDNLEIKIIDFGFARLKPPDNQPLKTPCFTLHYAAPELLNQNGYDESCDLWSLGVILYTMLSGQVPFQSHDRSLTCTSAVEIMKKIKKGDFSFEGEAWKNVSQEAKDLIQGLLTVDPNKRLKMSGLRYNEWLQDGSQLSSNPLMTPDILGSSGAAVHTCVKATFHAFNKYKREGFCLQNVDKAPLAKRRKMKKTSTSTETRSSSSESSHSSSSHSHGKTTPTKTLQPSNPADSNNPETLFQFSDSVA
FES (human), sequence (P07332 whole entry, looked up): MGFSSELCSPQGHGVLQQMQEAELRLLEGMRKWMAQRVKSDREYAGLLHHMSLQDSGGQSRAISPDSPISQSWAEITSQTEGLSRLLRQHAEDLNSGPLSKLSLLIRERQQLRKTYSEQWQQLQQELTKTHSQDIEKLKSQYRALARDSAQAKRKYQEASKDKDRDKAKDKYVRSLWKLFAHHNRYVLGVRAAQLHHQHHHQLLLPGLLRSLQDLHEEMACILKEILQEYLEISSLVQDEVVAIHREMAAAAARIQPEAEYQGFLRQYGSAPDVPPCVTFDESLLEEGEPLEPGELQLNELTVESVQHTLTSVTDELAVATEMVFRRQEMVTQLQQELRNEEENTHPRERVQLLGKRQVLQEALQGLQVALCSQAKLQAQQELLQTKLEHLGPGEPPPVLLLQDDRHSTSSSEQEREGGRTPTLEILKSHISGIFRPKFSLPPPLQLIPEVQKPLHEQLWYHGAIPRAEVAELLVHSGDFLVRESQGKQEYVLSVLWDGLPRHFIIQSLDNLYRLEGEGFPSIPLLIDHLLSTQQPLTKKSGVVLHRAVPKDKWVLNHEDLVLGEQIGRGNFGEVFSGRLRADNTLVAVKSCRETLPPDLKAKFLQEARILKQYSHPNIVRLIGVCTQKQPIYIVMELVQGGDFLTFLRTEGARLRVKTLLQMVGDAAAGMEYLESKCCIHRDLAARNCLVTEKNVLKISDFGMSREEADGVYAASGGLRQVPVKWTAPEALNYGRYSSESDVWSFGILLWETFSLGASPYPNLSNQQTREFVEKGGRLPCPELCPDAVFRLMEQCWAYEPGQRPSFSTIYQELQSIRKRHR
ABL1 (human), P00519 [E255K], sequence (P00519 whole entry E255K, looked up): as the sequence (P00519 whole entry, looked up) above, with E255K counted along it

- inhibition [1]: 3%
- inhibition [2]: -4%
- inhibition [3]: 1%
- inhibition [4]: 1%
- inhibition [5]: 11%
- inhibition [6]: 9%
- inhibition [7]: -1%
- inhibition [8]: 4%
- inhibition [9]: -3%
- inhibition [10]: 6%
- inhibition [11]: -2%
- inhibition [12]: 9%
- inhibition [13]: 0%
- inhibition [14]: -1%
- inhibition [15]: 1%
- inhibition [16]: 0%
- inhibition [17]: 2%
- inhibition [18]: 9%
- inhibition [19]: 4%
- inhibition [20]: 5%
- inhibition [21]: 10%
- inhibition [22]: 1%
- inhibition [23]: 3%
- inhibition [24]: 39%
- inhibition [25]: 13%
- inhibition [26]: 3%
- inhibition [27]: 6%
- inhibition [28]: 6%
- inhibition [29]: 3%
- inhibition [30]: 1%
- inhibition [31]: 8%
- inhibition [32]: 4%
- inhibition [33]: 9%
- inhibition [34]: 8%
- inhibition [35]: 4%
- inhibition [36]: 10%
- inhibition [37]: 0%
- inhibition [38]: -2%
- inhibition [39]: 8%
- inhibition [40]: 25%
Compound: Nc1cc(C(F)(F)F)c(-c2cc(N3CCOCC3)nc(N3CCOCC3)n2)cn1
